Patent publication US20220274947A1, “NOVEL HETEROARYL-TRIAZOLE COMPOUNDS AS PESTICIDES” (Bayer Aktiengesellschaft, priority 2019, published 2022)

Columns and labels:
Assay type in all cases: in vivo
Rhipicephalus microplus [1] = experiment: Rhipicephalus (Boophilus) microplus injection test (BOOPMI Inj); conditions: 168 h, injection into adult engorged female ticks, egg deposition after 7 days, read-out: activity (efficacy: 100% means all eggs are infertile); for pest or weed control at 0.004 mg: application rate 4 μg/tick; for pest or weed control at 0.02 mg: application rate 20 μg/tick
How it was run: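 Compound in DMSO, 1 μL, injected abdominally into five adult engorged females, which were then held in a climate chamber. Read-out is egg fertility, scored from deposition at 7 days, with unclear eggs followed to hatching (~42 days); 0% means all eggs fertile, 100% all infertile.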

Rhipicephalus microplus [2] = experiment: Rhipicephalus (Boophilus) microplus in-vitro contact test, larval cattle tick, strain Parkhurst (BOOPMI Cont); conditions: application rate 5 μg/cm^2 (=500 g/ha), tick larvae, after 48 hours, read-out: activity (efficacy: 100% means all larvae are dead or moribund)
How it was run: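 After 48 h at 27° C. and 85% humidity, percent dead or moribund larvae was scored from negative geotactic behaviour. Larvae (20-50, Parkhurst strain, synthetic pyrethroid-resistant) were exposed in tubes coated with compound from acetone, 900 ppm corresponding to 5 μg/cm^2.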

Ctenocephalides felis = Ctenocephalides felis in-vitro contact test, adult cat flea (CTECFE Cont); conditions: application rate 5 μg/cm^2 (=500 g/ha), adult cat fleas, after 48 hours, read-out: activity (efficacy: 100% means all fleas are dead or moribund)
How it was run: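 Efficacy, as percent of fleas dead or moribund, was scored 48 h after adults (5-10 per tube) were placed in glass tubes whose walls carried dried compound at 5 μg/cm^2 (900 ppm solution). Moribund meant failing to climb away from a 45-50° C. hot plate within 5 min.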

Spodoptera frugiperda = Spodoptera frugiperda spray test; conditions: in Zea mays, 168 h, read-out: activity (mortality)
How it was run: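 Percent kill of fall armyworm caterpillars was assessed 7 days after infesting dried, treated maize leaf sections. Treatment was a spray of compound in acetone/dimethylformamide, diluted with water containing emulsifier at 1000 ppm.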

[3] = system: Aedes aegypti strain MONHEIM; experiment: Aedes aegypti test (AEDSAE surface treatment & contact assay); conditions: exposure 30 minutes, 24 hours after contact, read-out: efficacy (mortality); for mortality at 4 mg/m2: surface concentration 4 mg/m^2, glazed tile; for mortality at 20 mg/m2: surface concentration 20 mg/m^2, glazed tile
How it was run: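 Compound dissolved in acetone (2 mg/ml) with 2000 ppm rapeseed oil methyl ester, pipetted onto glazed tile and dried. Adult mosquitoes exposed on the surface for 30 min; percent mortality scored 24 h after contact.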

[4] = system: Culex quinquefasciatus strain P00; experiment: Culex quinquefasciatus test (CULXFA surface treatment & contact assay); conditions: exposure 30 minutes, 24 hours after contact, read-out: efficacy (mortality); for mortality at 4 mg/m2: surface concentration 4 mg/m^2, glazed tile; for mortality at 20 mg/m2: surface concentration 20 mg/m^2, glazed tile
Description: Culex quinquefasciatus Test (CULXFA Surface Treatment & Contact Assay) Solvent: Aceton+2000 ppm rapeseed oil methyl ester (RME)
In order to produce a sufficient, active ingredient containing solution it is necessary to solve the test compound in the solvent-mix (acetone at 2 mg/ml/RME 2 000 ppm). This solution is pipetted onto a glazed tile and after evaporation of the acetone, adult mosquitoes of the species Culex quinquefasciatus strain P00 are placed onto the dried surface. The exposure time is 30 minutes. Mortality in percent (%) is determined 24 hours after contact of the insects to the treated surface. 100% mortality means that all tested insects are dead, whereas 0% means that no insect died.

Diabrotica balteata = Diabrotica balteata spray test; conditions: 168 h, wheat seeds, larvae, after 7 days, read-out: activity (efficacy: 100% means all seedlings have grown up like in the untreated, uninfected control); for pest or weed control at 32 µg/disc, 100 g/ha: application rate 100 g/ha (=32 μg/well); for pest or weed control at 160 µg/disc, 500 g/ha: application rate 500 g/ha (=160 μg/well)
How it was run: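 Efficacy (%) was scored 7 days after spraying, with 100% meaning growth like the untreated, uninfected control and 0% meaning no seedling grew. Spray solutions of compound in acetone/DMF with emulsifier-containing water went onto 1-day-germinated wheat seeds, and each unit was then infested with 10-20 banded cucumber beetle larvae.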

C[C@H](NC(=O)c1cc(Cl)cc(C#N)c1)c1ncnn1-c1ccc(C#N)cn1 [II-57]
80 to 100%: mortality at 4 mg/m2 [3] | mortality at 20 mg/m2 [3] | mortality at 4 mg/m2 [4] | mortality at 20 mg/m2 [4]
100%: pest or weed control at 0.004 mg (Rhipicephalus microplus [1]) | pest or weed control at 0.02 mg (Rhipicephalus microplus [1]) | pest or weed control at 5 µg/cm2 (Rhipicephalus microplus [2]) | pest or weed control at 5 µg/cm2 (Ctenocephalides felis) | mortality at 100 g/ha (Spodoptera frugiperda)

C[C@H](NC(=O)c1cc(Cl)cc(C(F)(F)F)c1)c1ncnn1-c1cc(N)ccn1 [II-28]
90%: pest or weed control at 5 µg/cm2 (Rhipicephalus microplus [2])
80 to 100%: mortality at 20 mg/m2 [3] | mortality at 4 mg/m2 [4] | mortality at 20 mg/m2 [4]
100%: pest or weed control at 0.004 mg (Rhipicephalus microplus [1]) | pest or weed control at 0.02 mg (Rhipicephalus microplus [1]) | pest or weed control at 5 µg/cm2 (Ctenocephalides felis) | pest or weed control at 32 µg/disc, 100 g/ha (Diabrotica balteata) | pest or weed control at 160 µg/disc, 500 g/ha (Diabrotica balteata) | mortality at 500 g/ha (Spodoptera frugiperda)

Cc1nc([C@H](C)NC(=O)c2cc(Cl)cc(Br)c2)n(-c2ccc(C#N)cn2)n1 [II-50]
80 to 100%: mortality at 4 mg/m2 [3] | mortality at 20 mg/m2 [3] | mortality at 4 mg/m2 [4]
100%: pest or weed control at 0.004 mg (Rhipicephalus microplus [1]) | pest or weed control at 0.02 mg (Rhipicephalus microplus [1]) | pest or weed control at 5 µg/cm2 (Rhipicephalus microplus [2]) | pest or weed control at 5 µg/cm2 (Ctenocephalides felis) | pest or weed control at 32 µg/disc, 100 g/ha (Diabrotica balteata) | mortality at 100 g/ha (Spodoptera frugiperda)

Cc1nc([C@H](C)NC(=O)c2cncc(C(F)(F)F)c2)n(-c2ccc(C#N)cn2)n1 [II-63]
100%: pest or weed control at 0.004 mg (Rhipicephalus microplus [1]) | pest or weed control at 0.02 mg (Rhipicephalus microplus [1]) | pest or weed control at 5 µg/cm2 (Rhipicephalus microplus [2]) | pest or weed control at 5 µg/cm2 (Ctenocephalides felis) | pest or weed control at 32 µg/disc, 100 g/ha (Diabrotica balteata)
80 to 100%: mortality at 4 mg/m2 [3] | mortality at 20 mg/m2 [3] | mortality at 20 mg/m2 [4]

C[C@H](NC(=O)c1cccc(Cl)n1)c1ncnn1-c1ccc(C#N)cn1 [II-9]
100%: pest or weed control at 0.02 mg (Rhipicephalus microplus [1]) | pest or weed control at 32 µg/disc, 100 g/ha (Diabrotica balteata) | pest or weed control at 160 µg/disc, 500 g/ha (Diabrotica balteata) | mortality at 500 g/ha (Spodoptera frugiperda)
80 to 100%: mortality at 20 mg/m2 [4]
80%: pest or weed control at 5 µg/cm2 (Rhipicephalus microplus [2])
83%: mortality at 100 g/ha (Spodoptera frugiperda)

CC(=O)Nc1ccnc(-n2ncnc2[C@H](C)NC(=O)c2cc(Cl)cc(C(F)(F)F)c2)c1 [II-36]
80%: pest or weed control at 5 µg/cm2 (Ctenocephalides felis)
100%: pest or weed control at 0.004 mg (Rhipicephalus microplus [1]) | pest or weed control at 0.02 mg (Rhipicephalus microplus [1]) | pest or weed control at 5 µg/cm2 (Rhipicephalus microplus [2]) | mortality at 100 g/ha (Spodoptera frugiperda) | mortality at 500 g/ha (Spodoptera frugiperda)
80 to 100%: mortality at 4 mg/m2 [3] | mortality at 20 mg/m2 [3] | mortality at 4 mg/m2 [4] | mortality at 20 mg/m2 [4]

C[C@H](NC(=O)c1cc(C(F)(F)F)cc(C(F)(F)F)c1)c1ncnn1-c1ncc(Br)s1 [II-41]
80 to 100%: mortality at 4 mg/m2 [3] | mortality at 20 mg/m2 [3] | mortality at 4 mg/m2 [4] | mortality at 20 mg/m2 [4]
100%: pest or weed control at 0.004 mg (Rhipicephalus microplus [1]) | pest or weed control at 0.02 mg (Rhipicephalus microplus [1]) | pest or weed control at 5 µg/cm2 (Rhipicephalus microplus [2]) | pest or weed control at 32 µg/disc, 100 g/ha (Diabrotica balteata) | pest or weed control at 160 µg/disc, 500 g/ha (Diabrotica balteata) | mortality at 100 g/ha (Spodoptera frugiperda)

C[C@H](NC(=O)c1cc(Cl)cc(OC(F)(F)F)c1)c1ncnn1-c1cc(N)ccn1 [II-7]
90%: pest or weed control at 5 µg/cm2 (Ctenocephalides felis)
80 to 100%: mortality at 20 mg/m2 [3] | mortality at 20 mg/m2 [4]
100%: pest or weed control at 0.004 mg (Rhipicephalus microplus [1]) | pest or weed control at 0.02 mg (Rhipicephalus microplus [1]) | pest or weed control at 32 µg/disc, 100 g/ha (Diabrotica balteata) | pest or weed control at 160 µg/disc, 500 g/ha (Diabrotica balteata) | mortality at 500 g/ha (Spodoptera frugiperda)

Cc1nc([C@H](C)NC(=O)c2cc(Cl)cc(C(F)(F)F)c2)n(-c2cc(C#N)ccn2)n1 [II-18]
80 to 100%: mortality at 20 mg/m2 [4]
100%: pest or weed control at 0.004 mg (Rhipicephalus microplus [1]) | pest or weed control at 0.02 mg (Rhipicephalus microplus [1]) | pest or weed control at 5 µg/cm2 (Rhipicephalus microplus [2]) | pest or weed control at 5 µg/cm2 (Ctenocephalides felis) | pest or weed control at 32 µg/disc, 100 g/ha (Diabrotica balteata) | pest or weed control at 160 µg/disc, 500 g/ha (Diabrotica balteata) | mortality at 100 g/ha (Spodoptera frugiperda) | mortality at 500 g/ha (Spodoptera frugiperda)

C[C@H](NC(=O)c1cc(C(F)(F)F)cc(C(F)(F)F)c1)c1ncnn1-c1ccc(C(N)=O)cn1 [II-81]
80 to 100%: mortality at 4 mg/m2 [3] | mortality at 20 mg/m2 [3]
80%: pest or weed control at 32 µg/disc, 100 g/ha (Diabrotica balteata)
100%: pest or weed control at 0.004 mg (Rhipicephalus microplus [1]) | pest or weed control at 5 µg/cm2 (Rhipicephalus microplus [2]) | pest or weed control at 5 µg/cm2 (Ctenocephalides felis) | mortality at 100 g/ha (Spodoptera frugiperda)

C[C@H](NC(=O)c1cc(Br)cc(OC(F)(F)F)c1)c1ncnn1-c1ccc(C#N)cn1 [II-14]
100%: pest or weed control at 0.004 mg (Rhipicephalus microplus [1]) | pest or weed control at 0.02 mg (Rhipicephalus microplus [1]) | pest or weed control at 5 µg/cm2 (Rhipicephalus microplus [2]) | pest or weed control at 5 µg/cm2 (Ctenocephalides felis) | pest or weed control at 32 µg/disc, 100 g/ha (Diabrotica balteata) | pest or weed control at 160 µg/disc, 500 g/ha (Diabrotica balteata) | mortality at 100 g/ha (Spodoptera frugiperda) | mortality at 500 g/ha (Spodoptera frugiperda)
80 to 100%: mortality at 4 mg/m2 [3] | mortality at 20 mg/m2 [3]

C[C@H](NC(=O)c1cc(C(F)F)cc(C(F)F)c1)c1ncnn1-c1ccc(C#N)cn1 [II-101]
100%: pest or weed control at 0.004 mg (Rhipicephalus microplus [1]) | pest or weed control at 5 µg/cm2 (Rhipicephalus microplus [2]) | pest or weed control at 5 µg/cm2 (Ctenocephalides felis) | pest or weed control at 32 µg/disc, 100 g/ha (Diabrotica balteata) | mortality at 100 g/ha (Spodoptera frugiperda)
80 to 100%: mortality at 4 mg/m2 [3] | mortality at 20 mg/m2 [3]

Cc1nc([C@H](C)NC(=O)c2cc(Br)cc(C(F)(F)F)c2)n(-c2ccc(C#N)cn2)n1 [II-32]
80%: pest or weed control at 0.004 mg (Rhipicephalus microplus [1])
100%: pest or weed control at 0.02 mg (Rhipicephalus microplus [1]) | pest or weed control at 5 µg/cm2 (Rhipicephalus microplus [2]) | pest or weed control at 5 µg/cm2 (Ctenocephalides felis) | pest or weed control at 32 µg/disc, 100 g/ha (Diabrotica balteata) | pest or weed control at 160 µg/disc, 500 g/ha (Diabrotica balteata) | mortality at 100 g/ha (Spodoptera frugiperda) | mortality at 500 g/ha (Spodoptera frugiperda)
80 to 100%: mortality at 4 mg/m2 [3] | mortality at 20 mg/m2 [3]

CCN(C)C(=O)c1ccc(-n2nc(C)nc2[C@H](C)NC(=O)c2cc(C(F)(F)F)cc(C(F)(F)F)c2)nc1 [II-97]
80 to 100%: mortality at 20 mg/m2 [3]
100%: pest or weed control at 0.004 mg (Rhipicephalus microplus [1]) | pest or weed control at 5 µg/cm2 (Rhipicephalus microplus [2]) | pest or weed control at 5 µg/cm2 (Ctenocephalides felis) | pest or weed control at 32 µg/disc, 100 g/ha (Diabrotica balteata) | mortality at 100 g/ha (Spodoptera frugiperda)
